Laboratory results taken from US20260199323A1, “LIGAND COMPOUNDS FOR E3 UBIQUITIN LIGASE, PROTEIN DEGRADERS DEVELOPED ON BASIS OF LIGAND COMPOUNDS, AND USES THEREOF” (GLUETACS THERAPEUTICS (SHANGHAI) CO., LTD., priority 2021, published 2026).

Tests used:
Mino = assay: CCK-8 tumor cell proliferation, Mino; type: cell-based, Human; settings: Table 13, designed based on BCR-ABL inhibitors; 72 h
Outline: (§1)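 Proliferation was measured by CCK-8. Plated cells received compound 24 h later at ten 5-fold dilutions beginning at 10 μM.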

K562 = assay: CCK-8 tumor cell proliferation, K562; design: species or system Human; settings: Table 13, designed based on BCR-ABL inhibitors; 72 h
Protocol: (§2) The tumor cells used herein were cultured in a cell culture medium listed in table 4 at 37° C. in an incubator with 5% CO2. Prior to experimentation, all cells used were correctly identified by STR profiling, and tested negative for mycoplasma through routine screenings.
(§3) IC50 values of the compounds of the present disclosure (including the compounds in Tables 1 and 3, and compounds of examples) were measured using the Meilun Cell Counting Kit-8 kit from Dalian Meilun Biotech Co., Ltd. Assay details are as follows: tumor cells were seeded in a 96-well plate at a density listed in Table 5. After 24 h, 100 μL of the inoculated cells were treated with 0.5 μL of the compounds of the present disclosure (including the compounds in Tables 1 and 3, and compounds of examples) at 10 different successively decreasing concentrations (starting at the highest concentration of 10 μM; 5-fold serial dilutions). After the cells were treated with the compounds of the present disclosure for a period of time, the cell viability detection reagent was added to the culture medium for cell viability assessment according to the instructions provided with the CCK-8 kit. […] The growth inhibition of the compounds of the present disclosure on cells was plotted by Prism Graphpad software, and the IC50 values of the compounds of the present disclosure were calculated therefrom.

CCRF-CEM = assay: CCK-8 tumor cell proliferation, CCRF-CEM; type: cell-based, Human; design: IC50 for inhibiting the proliferation of tumor cells, CCRF-CEM: scale not given here; settings: 96 h
Outline: as §1

Daudi = assay: CCK-8 tumor cell proliferation, Daudi; design: species or system Human; settings: Table 13, designed based on BCR-ABL inhibitors; 96 h
Protocol: as §2, §3

CAL-62 = assay: CCK-8 tumor cell proliferation, CAL-62; type: cell-based, Human; design: IC50 for inhibiting the proliferation of tumor cells, CAL-62: scale not given here; settings: Table 13, designed based on BCR-ABL inhibitors; 72 h
Outline: as §1

Kasumi-1 = assay: CCK-8 tumor cell proliferation, Kasumi-1; type: cell-based, Human; settings: 72 h
Outline: as §1

MM.1S = assay: CCK-8 tumor cell proliferation, MM.1S; type: cell-based; settings: Table 6, designed based on STAT3 inhibitors; 72 h
Outline: as §1

SNU-182 = assay: CCK-8 tumor cell proliferation, SNU-182; design: species or system Human; settings: Table 6, designed based on STAT3 inhibitors; 96 h
Protocol: as §2, §3

T47D = assay: CCK-8 tumor cell proliferation, T47D; type: cell-based, Human; settings: Table 6, designed based on STAT3 inhibitors; 96 h
Protocol: as §2, §3

TMD8 = assay: CCK-8 tumor cell proliferation, TMD8; design: species or system Human; settings: Table 13, designed based on BCR-ABL inhibitors; 72 h
Protocol: as §2, §3

[1] = Table 13, designed based on BCR-ABL inhibitors
[2] = Table 6, designed based on STAT3 inhibitors

Cc1ccc(C(=O)Nc2ccc(CN3CCN(Cc4ccc5c(c4)CN(C4CCC(=O)NC4=O)C5=O)CC3)c(C(F)(F)F)c2)cc1C#Cc1cnc2cccnn12 (stereo not drawn) [GT-03804, N-(4-((4-((2-(2,6-dioxopiperidin-3-yl)-1-oxoisoindolin-5-yl)methyl)piperazin-1-yl)methyl)-3-(trifluoromethyl)phenyl)-3-(imidazo[1,2-b]pyridazin-3-ylethynyl)-4-methylbenzamide]
A+: IC50 for inhibiting the proliferation of tumor cells, Mino (Mino) | IC50 for inhibiting the proliferation of tumor cells, K562 (K562) | IC50 for inhibiting the proliferation of tumor cells, CCRF-CEM (CCRF-CEM; [1]) | IC50 for inhibiting the proliferation of tumor cells, Daudi (Daudi) | IC50 for inhibiting the proliferation of tumor cells, CAL-62 (CAL-62) | IC50 for inhibiting the proliferation of tumor cells, Kasumi-1 (Kasumi-1; [1])

O=C1CCC(N2Cc3cc(CNC(=O)c4cc5c(o4)C(=O)c4ccccc4C5=O)ccc3C2=O)C(=O)N1 (stereo not drawn) [GT-03383, N-((2-(2,6-dioxopiperidin-3-yl)-1-oxoisoindolin-5-yl)methyl)-4,9-dioxo-4,9-dihydronaphtho[2,3-b]furan-2-carboxamide]
A+: IC50 for inhibiting the proliferation of tumor cells, MM.1S (MM.1S) | IC50 for inhibiting the proliferation of tumor cells, SNU-182 (SNU-182) | IC50 for inhibiting the proliferation of tumor cells, T47D (T47D) | IC50 for inhibiting the proliferation of tumor cells, CCRF-CEM (CCRF-CEM; [2]) | IC50 for inhibiting the proliferation of tumor cells, Kasumi-1 (Kasumi-1; [2])

Cc1ccc(NC(=O)c2ccc(CN(C)Cc3ccc4c(c3)CN(C3CCC(=O)NC3=O)C4=O)cc2)cc1Nc1nccc(-c2cccnc2)n1 (stereo not drawn) [GT-03990, 4-((((2-(2,6-dioxopiperidin-3-yl)-1-oxoisoindolin-5-yl)methyl)(methyl)amino)methyl)-N-(4-methyl-3-((4-(pyridin-3-yl)pyrimidin-2-yl)amino)phenyl)benzamide]
A+: IC50 for inhibiting the proliferation of tumor cells, TMD8 (TMD8)
